Data from paper PMC10101930 (Immunity, 2023).

Biological target: NHR-86 (Caenorhabditis elegans, UniProt Q965W2)
Assay: intrinsic tryptophan fluorescence quenching of purified LBD
Format: binding

NHR-86, sequence (Q965W2 130-405): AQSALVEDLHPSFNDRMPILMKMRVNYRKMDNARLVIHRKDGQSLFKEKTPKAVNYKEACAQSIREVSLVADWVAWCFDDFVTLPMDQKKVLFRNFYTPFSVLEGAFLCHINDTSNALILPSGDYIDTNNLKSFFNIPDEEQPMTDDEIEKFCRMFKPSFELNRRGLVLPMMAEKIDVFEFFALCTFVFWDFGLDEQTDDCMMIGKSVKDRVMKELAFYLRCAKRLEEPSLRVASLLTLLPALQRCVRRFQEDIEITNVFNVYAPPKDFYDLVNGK

Structure (SMILES): NC(=O)c1cccc2nc3ccccc3nc12 [PCN, phenazine-1-carboxamide]
- Kd: 24.2 µM
